From ChEMBL document CHEMBL1145505, “Bisphosphonates target multiple sites in both cis- and trans-prenyltransferases” (Proc Natl Acad Sci U S A, 2007)
Several values for one entry are separate records, joined by “and”; a condition that tells them apart may be missing. Equal entries are not always repeated.

Assays:
[1] = Inhibition of Escherichia coli UPPS
[2] = Inhibition of Sulfolobus solfataricus HPPS; parameters: species or system Saccharolobus solfataricus
[3] = Inhibition of Escherichia coli OPPS

SMILES	IC50 [1]	IC50 [2] [µM]	IC50 [3] [µM]
O=P([O-])(O)C(O)(C[n+]1cccc(-c2ccccc2)c1)P(=O)(O)O (configuration not stated)	48 µM	–	–
O=P([O-])(O)C(O)(C[n+]1cccc(F)c1)P(=O)(O)O (configuration not stated)	490 µM	–	–
O=P(O)(O)C(O)(CCc1cccc(-c2ccccc2-c2ccccc2)c1)P(=O)(O)O	3.1 µM	–	–
O=P(O)(O)C(O)(Cc1cccc(-c2cccc(-c3ccccc3)c2)c1)P(=O)(O)O	–	0.46	0.43
O=P(O)(O)C(O)(CCc1cccc(-c2ccc(-c3ccccc3)cc2)c1)P(=O)(O)O	10 µM	–	–
O=P(O)(O)C(O)(c1cccc(-c2cccc(-c3ccccc3)c2)c1)P(=O)(O)O	1.8 µM	–	–
O=P([O-])(O)C(C[n+]1cccc(-c2ccccc2-c2ccccc2)c1)P(=O)(O)O (configuration not stated)	120 µM	–	–
O=P(O)(O)C(O)(Cc1cccc(-c2cccc(NS(=O)(=O)c3ccc4ccccc4c3)c2)c1)P(=O)(O)O	–	0.42	5.4
O=P(O)(O)C1(P(=O)(O)O)CC(c2ccc(Cl)c(Cl)c2)=NO1	87 µM	–	–
O=P(O)(O)C(O)(Cc1ccc(-c2ccc(-c3ccccc3)cc2)cc1)P(=O)(O)O	2 µM	–	–
O=P(O)(O)C(O)(CCc1ccc(-c2cccc3c2oc2ccccc23)cc1)P(=O)(O)O	12 µM	–	–
O=P(O)(O)C(O)(COc1cccc(-c2cccc(-c3ccccc3)c2)c1)P(=O)(O)O	–	360	0.075
O=P(O)(O)C(O)(Cc1cccc(-c2ccc(-c3ccccc3)cc2)c1)P(=O)(O)O	–	2.7	870
O=P(O)(O)C(O)(Cc1cccc(-c2ccccc2)c1)P(=O)(O)O	6.8 µM	–	–
O=P(O)(O)C(O)(CCc1cccc(-c2cccc(-c3ccccc3)c2)c1)P(=O)(O)O	5.5 µM	–	–
O=P(O)(O)C(O)(Cc1ccc(-c2cccc(-c3ccccc3)c2)cc1)P(=O)(O)O	1 µM	–	–
O=P([O-])(O)C(C[n+]1ccc(-c2ccc(-c3ccccc3)cc2)cc1)P(=O)(O)O (configuration not stated)	28 µM	–	–
O=P([O-])(O)C(C[n+]1cccc(-c2ccc(-c3ccccc3)cc2)c1)P(=O)(O)O (configuration not stated)	35 µM	–	–
CC(C)=CCC/C(C)=C/Cc1ccc[n+](CC(P(=O)([O-])O)P(=O)(O)O)c1 (configuration not stated)	89 µM	–	–
O=P([O-])(O)C(C[n+]1cccc(-c2cccc(-c3ccccc3)c2)c1)P(=O)(O)O (configuration not stated)	68 µM and 21 µM	–	–
O=P([O-])(O)C(O)(C[n+]1ccc(-c2cccc3c2oc2ccccc23)cc1)P(=O)(O)O (configuration not stated)	13 µM	–	–
O=P([O-])(O)C(C[n+]1cccc(-c2cccc3c2oc2ccccc23)c1)P(=O)(O)O (configuration not stated)	34 µM	–	–
O=P(O)(O)C(O)(Cc1cccc(-c2cccc3c2oc2ccccc23)c1)P(=O)(O)O	–	1.2	32
O=P(O)(O)C(O)(Cc1ccccc1)P(=O)(O)O	200 µM	–	–
O=P(O)(O)C(CCCc1ccc(-c2ccccc2)cc1)P(=O)(O)O	69 µM	–	–
O=P(O)(O)C(O)(Cc1cnc2ccccn12)P(=O)(O)O [MINODRONIC ACID]	–	0.05	2.1
O=P(O)(O)C(O)(Cc1cccnc1)P(=O)(O)O [RISEDRONIC ACID]	660 µM	0.09	0.038
O=P(O)(O)C(O)(Cn1ccnc1)P(=O)(O)O [ZOLEDRONIC ACID]	–	0.09	0.038
